According to US6869961B2, “Store operated calcium influx inhibitors and methods of use” (Cellegy Pharmaceuticals, Inc., priority 2001, dated 2005):

How the values were obtained:
IL-2 [1] = test: IL-2 release from Jurkat cells (PMA and ionomycin, ELISA); format: cell-based, human; conditions: for IC50: Homo sapiens, Jurkat, Table III, 'the foregoing assay' of Example 2
Protocol: Since NFAT plays a critical role in IL-2 and TNFα gene transcription, the effects of the novel compounds on IL-2 and TNFα secretion from stimulated lymphoid cells were also investigated. Jurkat cells, in standard medium, were seeded into 24-well dishes at 1 million cells per well and were treated as follows: […], then stimulated with 20 ng/mL PMA and 1 μg/mL ionomycin for 5 hours. Following centrifugation, the supernatants were analyzed for IL-2 content by ELISA using a standard protocol.

NFAT = test: NFAT-regulated luciferase reporter assay in Jurkat cells; format: cell-based, human; conditions: for inhibition of NFAT activity: NFAT reporter assay, Jurkat cells
Protocol: The biological activity of column fractions and crystalline material was assessed in the NFAT activation assay using Jurkat cells stably transfected with NFAT-regulated luciferase reporter (see, FIGS. 9-14).
Jurkat cells, in standard medium, were seeded in 24-well dishes at 1 million cells per well and treated as follows. […] The cells were harvested 5 hours later and luciferase activity was measured in a luminometer.

TNBS-induced colitis = test: Rat TNBS-induced colitis model; format: in vivo; conditions: 50 mg/kg/day intracolonically, two weeks, day 14
Excerpt: Human inflammatory bowel disease (IBD) is a chronic relapsing and remitting disease of unknown etiology that affects individuals of both sexes throughout life. The factors contributing to the two main forms of the disease, Crohn's disease and ulcerative colitis, are complex and probably involve abnormal immune responses and commensal intestinal microflora. A number of experimental models of intestinal inflammation have been developed, including those based on intracolonic instillation of 2,4,6-trinitrobenzene sulfonic acid (TNBS). TNBS-induced colitis shares many of the histopathological and clinical features of Crohn's disease, i.e. it is to some extent immune-mediated, produces long lasting ulcerative damage and thickening of the bowel wall, granulocyte and mononuclear cell infiltration and granuloma formation, and transmural inflammation of the mucosa, (Morris et al., Gastroenterology 96:795-803, 1989). This model has been widely used to evaluate potential treatments for colonic inflammation.
In the present study, the local anti-inflammatory effects of lovastatin were assessed in the rat TNBS-induced colitis model. Colitis was induced in male Wistar rats weighing 175-225 g by intracolonic instillation of the hapten TNBS (60 mg/ml) in 0.5 ml of 50% ethanol. Groups of 8 rats received the lovastatin formulation prepared in Example 11 (50 mg/kg/day), a positive control, budesonide (2.5 mg/kg/day), or vehicle (0.5% sodium carboxymethylcellulose) intracolonically 1 hour after induction of colitis, and at 12 h intervals thereafter for two weeks. The rats received 0.5 ml of test drug or vehicle at each dosing. On day 14 after induction of colitis, the animals were euthanized and the distal colon was removed and pinned out on a wax platform. The presence or absence of diarrhea was noted, as was the presence and severity of adhesions between the colon and other organs. The severity of colonic damage was scored using the criteria described in Appleyard and Wallace, Am. J. Physiol. 269 (Gastrointest.Liver Physiol. 32): G119-G125, 1995. […]

[2] = tested on: oxazolone-induced contact hypersensitivity response; conditions: mouse, FIG. 6
[3] = tested on: rat basophilic leukemia (2H3) cells; test: 5-HT release from rat basophilic leukemia (2H3) cells; format: cell-based; conditions: FIG. 5
Crohn's disease = test: Maintenance therapy of Crohn's disease in remission; format: in vivo, human; conditions: Crohn's disease subjects in remission
Excerpt: Remission is defined as no need for oral prednisone and presence of a score of 150 or less on the Crohn's Disease Activity Index. This index incorporates eight items: the number of liquid or very soft stools in the seven days preceding the assessment, the severity of abdominal pain, general well-being, the presence or absence of an abdominal mass or extra-intestinal manifestation of the disease, the use of opiates to treat diarrhea, hematocrit, and weight. Scores in this index can range from 0 to approximately 600. Higher scores indicate greater disease activity.
Upon reaching remission, the subject takes lovastatin orally (Mevacor, 20-1000 mg) every day, in addition to one or more of the following: controlled release lovastatin tablet(s) targeting specific disease sites, lovastatin enema(s), or lovastatin rectal suppositories on a regular basis. On average, 50-60% of Crohn's disease subjects in remission relapse in 40 weeks.

IL-8 = IL-8 production from Jurkat cells; format: cell-based, human
JNK = JNK phosphorylation in Jurkat T cells (Western blot); format: cell-based, human; parameters: dose or concentration left out as unconfirmed; conditions: lovastatin
Excerpt: Cells were harvested, lysates prepared, and proteins Western blotted using antibodies directed against JNK or phospho-JNK (Thr183/Thr185).

IFN-gamma = IFN-gamma production from Jurkat cells; format: cell-based, human
NF-κB = NF-κB luciferase reporter in Jurkat T cells; format: cell-based, human; conditions: 20 μg/ml, 5 hr
Protocol: The next day, cells were preincubated with lovastatin (20 μg/ml) or vehicle control for 15 min, and then stimulated with PMA (20 ng/ml), ionomycin (1 μg/ml), or PMA+ionomycin for 5 hr. The cells were harvested, lysed, and lysates assayed for firefly luciferase and Renilla luciferase activity measured in a luminometer.

IL-2 [4] = test: PBMC IL-2 release; format: cell-based; conditions: FIG. 3
TNF-alpha = test: PBMC TNF-alpha release; format: cell-based; conditions: FIG. 4

Structure (SMILES): O=C1C[C@H](O)C[C@H](CCc2ccccc2)O1
- IC50 (IL-2 [1]): 300 µM

Structure (SMILES): O=C1C[C@@H](O)C[C@H](CCc2ccccc2)O1
- IC50 (IL-2 [1]): 150 µM

Structure (SMILES): O=C1CCCC(CCc2ccccc2)O1 (stereo not shown)
- IC50 (IL-2 [1]): > 50 µM

Structure (SMILES): O=C1C=CCC(CCc2ccccc2)O1 (stereo not shown)
- IC50 (IL-2 [1]): 5 µM

Structure (SMILES): O=C1CCC(CCc2ccccc2)O1 (stereo not shown)
- IC50 (IL-2 [1]): > 50 µM

Structure (SMILES): O=C1C=CC(CCc2ccccc2)O1 (stereo not shown)
- IC50 (IL-2 [1]): 15 µM

Structure (SMILES): O=C1C=C(CCc2ccccc2)CO1
- IC50 (IL-2 [1]): > 50 µM

Structure (SMILES): CCOC(=O)/C=C/C=C/CCc1ccccc1
- IC50 (IL-2 [1]): 12 to 40 µM

Structure (SMILES): CCOC(=O)/C=C/C=C/C=C/c1ccccc1
- IC50 (IL-2 [1]): 4 to 12 µM

Structure (SMILES): CN1C(=O)N(c2cc(Cl)cc(Cl)c2)C(=O)C1(C)Cc1ccc(Br)cc1 (single isomer, unassigned) [BIRT377 less active enantiomer]
- inhibition of NFAT activity (NFAT): very weak NFAT inhibitory activity

Structure (SMILES): CN1C(=O)N(c2cc(Cl)cc(Cl)c2)C(=O)[C@@]1(C)Cc1ccc(Br)cc1 [BIRT377]
- inhibition of NFAT activity (NFAT): very weak NFAT inhibitory activity

Structure (SMILES): COC(=O)/C=C/C=C/C=C/c1c(-c2ccc(F)cc2)c2ccccc2n1C(C)C [Compound 1079-76-3C]
- inhibition of TG+PMA-induced NFAT activity (NFAT; 5 μg/mL, 0.3 μM TG + 20 ng/mL PMA, 5 hours): approximately 85%
- expression of NFAT-regulated reporter gene (NFAT; Jurkat cells stimulated with ionomycin + PMA or thapsigargin + PMA): inhibited
- IL-2 release by PMA and ionomycin in Jurkat cells (IL-2 [1]; 5.0 μg/mL, 30 min pre-incubation, 5 hours): inhibit

Structure (SMILES): CC[C@H](C)C(=O)O[C@H]1C[C@H](O)C=C2C=C[C@H](C)[C@H](CC[C@@H](O)C[C@@H](O)CC(=O)O)[C@H]21 [Pravastatin, pravastatin]
- inhibition of NFAT activity (NFAT): inactive

Structure (SMILES): CC(C)c1c(C(=O)Nc2ccccc2)c(-c2ccccc2)c(-c2ccc(F)cc2)n1CC[C@@H](O)C[C@@H](O)CC(=O)O [atorvastatin]
- inhibition of NFAT activity (NFAT): inactive

Structure (SMILES): COC(=O)/C=C/C=C/C=C/c1c(-c2ccc(F)cc2)c2ccccc2n1C(C)C [drawing 85]
- IC50 (IL-2 [1]): 3 µM

Structure (SMILES): CC(C)n1c(/C=C/C(O)CC(O)CC(=O)O)c(-c2ccc(F)cc2)c2ccccc21 (stereo not shown) [fluvastatin]
- inhibition of NFAT activity (NFAT): inactive

Structure (SMILES): CC[C@H](C)C(=O)O[C@H]1C[C@@H](C)C=C2C=C[C@H](C)[C@H](CC[C@@H]3C[C@@H](O)CC(=O)O3)[C@H]21 [lovastatin]
- colonic MPO activity (TNBS-induced colitis): reduced
- colonic damage score (TNBS-induced colitis): significant (p<0.05) reduction
- global colitis score (TNBS-induced colitis): significant (p<0.05) reduction
- inhibition of oxazolone-induced contact hypersensitivity response [2]: inhibition
- inhibition of 5-hydroxytryptomine (5-HT) release [3]: inhibition
- inhibition of NFAT activity (NFAT): able to inhibit
- disease activity (Crohn's disease): less severe
- remission time between relapse (Crohn's disease; oral 20-1000 mg every day plus local forms): longer
- inhibition of IL-8 production (IL-8): inhibition
- PMA-induced JNK phosphorylation (JNK): little effect
- JNK phosphorylation induced by PMA+ionomycin (JNK; 15 min pre-incubation, 30 min stimulation): inhibits
- inhibition of IFN-gamma production (IFN-gamma): inhibition
- inhibition of Jurkat IL-2 release (IL-2 [1]; FIG. 2): inhibition
- calcium-dependent NF-κB activation (ionomycin synergy with PMA) (NF-κB): strongly inhibits
- inhibition of PBMC IL-2 release (IL-2 [4]): inhibition
- inhibition of PBMC TNF-alpha release (TNF-alpha): inhibition

Structure (SMILES): CCC(C)C(=O)OC1CCC=C2C=CC(C)C(CCC(O)CC(O)CC(=O)O)C21 (stereo not shown) [mevastatin open chain form]
- inhibition of NFAT activity (NFAT): only the lactone form was active

Structure (SMILES): CC[C@H](C)C(=O)O[C@H]1CCC=C2C=C[C@H](C)[C@H](CC[C@@H]3C[C@@H](O)CC(=O)O3)[C@H]21 [mevastatin]
- inhibition of NFAT activity (NFAT): able to inhibit
- inhibition of NFAT activity (NFAT; listed as mevastatin lactone form): active
